Laboratory results taken from publication PMC11329928, “Design, synthesis and structure-activity relationship (SAR) studies of an unusual class of non-cationic fatty amine-tripeptide conjugates as novel synthetic antimicrobial agents” (Frontiers in Pharmacology, 2024).
“And” between values parts separate entries of the source, which are not always exact repeats. Equal entries are not always repeated. Structures can show the parent of a compound that is named as a salt.

Tests used:
Escherichia coli DH10B = assay: Resting-cell viability (CFU) with 0.5 mM EDTA; assay type: cell-based; set-up: key to CFU's decay in the presence of 0.5 mM EDTA, Ec (data in parenthesis): (+) CFU, decay ∼1 log-unit; (−) ≤ 0.3 log-units; conditions: for CFU's decay in the presence of 0.5 mM EDTA, Ec (data in parenthesis): E. coli DH10B, 100 µM compound, 3 h incubation; for Decrease in bacterial viability compared to controls in EDTA-containing buffer, E. coli: 100 µM, 20 mM Tris-HCl pH 7.5, 3 h, 37°C
Protocol: (§1) Addition of tested compounds to the culture medium had little or no effect on bacterial growth, even at a concentration of 100 μM (Table 1). Since inactivity could arise from the inability of DICAMs to cross the outer membrane, we next tested their effect on bacterial suspensions in the absence or the presence of 0.5 mM EDTA, an outer membrane permeating agent. A decrease of approximately 90% in bacterial viability was observed after 3 h treatment with DICAM 2 and DICAM 4, compared to controls in EDTA-containing buffer (Supplementary Figure S5). No variations were found with the other compounds tested (Table 1), showing that only DICAMs containing Ala/Asn- Pro -Glu tripeptides were able to access the cell membrane and kill these pathogens when the outer membrane permeability was enhanced.
(§2) For activity assays on resting cells, bacteria grown to exponential phase (OD600 ≈ 0.3) were centrifuged and washed with 20 mM Tris-HCl (pH 7.5), adjusting the final OD600 to ≈0.6 (≈10^8 CFU/mL) with the same buffer. If required, EDTA (0.5 mM final concentration) was next added and the bacterial suspension was dispensed (225 µL per well) in 96-well plates, and then treated with 100 µM DICAM (25 µL). Samples were incubated at 37°C for 3 h and turbidity measurements were taken at selected intervals, also measuring the decay in cell viability at the end of incubation. Controls with buffer (with and without 1% DMSO), 100 µM DICAM, or 0.5 mM EDTA were run in parallel.

S. pyogenes T = assay: Dose dependence of bacterial viability (CFU counting, Hill fit); assay type: cell-based, Streptococcus pyogenes; conditions: for SC (stationary concentration, Δlog = 0), S. pyogenes T / EC50 / Δlogmax, S. pyogenes T: 2 h treatment, Hill fit; for SC (stationary concentration, Δlog = 0), S. pyogenes T: BHI medium, added at T1, 10^7–10^8 CFU/mL, CFU vs untreated controls; for SC (stationary concentration, Δlog = 0), S. pyogenes T / EC50 / Δlogmax, S. pyogenes T / Decrease of the number of viable bacteria in the inoculum within 2 h: 37°C; for EC50 / Δlogmax, S. pyogenes T / Decrease of the number of viable bacteria in the inoculum within 2 h: BHI; for EC50: read-out: K 1/2 (concentration yielding half-variation in Δlogmax), S. pyogenes T (converted); for Δlogmax, S. pyogenes T: maximum variation in viability; for Decrease of the number of viable bacteria in the inoculum within 2 h: S. pyogenes T; for Reduction of bacterial viability at 3 × SC, S. pyogenes T: after 2 h of incubation at 3 × SC
From the text: First, the substitution of the fatty amino chain of 18 carbon atoms of the reference compound DICAM 2 by either an OMe group (methylated tripeptide DICAM 5) or an amine with 12 carbon atoms (DICAM 9) abolished the activity against all three pathogens. However, the activity remained intact when the chain of the fatty amine of prototypes DICAMs 1 and 4 was two carbon atoms shorter (DICAM 10 and DICAM 12, respectively), based on S. pneumoniae and S. pyogenes results. […] Third, Glu and Ala were tolerated as C-terminal residues of the lipotripeptides. […] In addition, deletion of the C-terminal Glu (DICAM 13) eradicated the activity against S. pneumoniae and S. aureus. However, a delay and small inhibition of S. pyogenes ^T growth was still observed. Fourth, Glu (DICAMs 19 and 20) and Orn (DICAMs 21 and 22) were tolerated as N-terminal residues, with the impact of these modifications being pathogen-dependent. […] SAR studies continued by measuring the dose dependence of DICAM’s activity at T1 with all the compounds found to be active against S. pyogenes or S. aureus in the initial screening, and all but one compound in the case of S. pneumoniae. The OD values of bacterial cultures were monitored after DICAM addition, and the decrease in the number of viable bacteria was measured relative to controls (Figures 4–6; Supplementary Figure S1). As antibacterial efficacy may decline with the bacterium dose in the inoculum ([Belley et al., 2009]; [Udekwu et al., 2009]; [Luca et al., 2013]), the assays were performed using the bacterial concentrations necessary for the fluorescence experiments in Section 2.3 (10^7–10^8 CFU/mL). At these high bacterial densities, MICs were determined as the DICAM concentration at which bacteria neither grow nor are killed (the stationary concentration (SC)), following [Udekwu et al., 2009]. By fitting the logarithmic plot of cell viability decrease vs. the DICAM dose to a Hill function (see Section 5.2.3.1) we were able to determine the maximum variation in viability (Δlogmax = ∆log f - ∆log 0, where ∆log f and ∆log 0 are the upper and lower limits of Δlog) in the assay conditions, the SC concentration (Δlog = 0), the dose required for half-variation in Δlogmax (K 1/2), and the cooperativity of the antimicrobial effect (N H).
(§3) Susceptibility to DICAMs was first tested by growth-inhibition assays at 50 and 100 μM of compound. Briefly, working solutions at 5 mM or 10 mM DICAM in pure DMSO were prepared from DICAM stocks (40 mM in pure DMSO) and diluted with fresh culture medium to 5× the desired final concentration. Aliquots (50 µL) of these solutions were added to 200 µL of bacterium cultures grown to early exponential phase (OD550/600 c. a. 0.15–0.2 in sterile 96-well plates (Cultek, Spain). Incubation continued for 10 h at 37°C and turbidity (OD550/600) values were measured every 20 min to monitor growth and lysis, using a VersaMax microplate reader (Molecular Devices; United Kingdom). Next, the activity dependence on DICAM’s dose was examined by measuring the turbidity of treated and untreated cultures as a function of time. Also, the decay of bacterial viability (CFU/mL) at selected times of treatment was assessed by colony counting on LB-agar or TSA plates after overnight incubation at 37°C. By default, 10 μL of 10-fold serially diluted samples were plated, which set the lower detection limit at 10^2 CFU/mL (10^1 CFU/mL when 100 μL of the undiluted sample was seeded).
As antibacterial efficacy may decline with the bacterium dose in the inoculum ([Belley et al., 2009]; [Udekwu et al., 2009]; [Luca et al., 2013]), activity assays were performed using the bacterial concentrations required for the fluorescence experiments in Section 2.3 (10^7–10^8 CFU/mL). At such bacterial densities, MICs were determined as the DICAM concentration at which bacteria neither grow nor are killed under assay conditions (the stationary concentration (SC)), as indicated in Section 2.2. […]

S. aureus T = assay: Growth inhibition and bacterial survival at 100 µM (Figure 6); assay type: cell-based, Staphylococcus aureus; conditions: 100 µM compound, BHI, 37°C; for S. aureus T growth, % of controls: five or more hours of incubation, increment in OD600 vs controls
Protocol: FIGURE 6 Antimicrobial effect of DICAMs active on S. aureus ^T. (A) Growth inhibition after culture challenge at 37°C with 100 μM of compound for 2, 5, and 6.5 h in BHI. Bars represent the percentage of the increment in OD600 for treated samples compared to controls and color goes from light to dark as time increases. “X” represents Ala, Asn, Glu or Orn. (B) Dependence of the kinetics of growth (OD600) (left panel) and bacterial population (right panel) on DICAM 14 dose. Bars in light and dark grey show bacterial populations of the initial inoculum and after incubation (3 and 5 h, respectively). Data shown are the average of three replicates, with error bars indicating the standard deviation of the mean.
as §3

[1] = system: Pseudomonas aeruginosa PAO1; assay: Resting-cell viability (CFU) with 0.5 mM EDTA; assay type: cell-based; set-up: key to CFU's decay in the presence of 0.5 mM EDTA, Pa (data in parenthesis): (+) CFU, decay ∼1 log-unit; (−) ≤ 0.3 log-units; conditions: for CFU's decay in the presence of 0.5 mM EDTA, Pa (data in parenthesis): P. aeruginosa PAO1, 100 µM compound, 3 h incubation; for Decrease in bacterial viability compared to controls in EDTA-containing buffer, P. aeruginosa: P. aeruginosa PAO1, 100 µM, 20 mM Tris-HCl pH 7.5, 3 h, 37°C
Protocol: as §1, §2

Row | Compound | CFU's decay in the presence of 0.5 mM EDTA, Ec (data in parenthesis) (Escherichia coli DH10B) | SC (stationary concentration, Δlog = 0), S. pyogenes T (S. pyogenes T) | EC50 (S. pyogenes T) | Δlogmax, S. pyogenes T (S. pyogenes T) | Permanent fall in bacterial survival (S. aureus T; S. aureus T, 5 h incubation) | CFU's decay in the presence of 0.5 mM EDTA, Pa (data in parenthesis) [1] | S. aureus T growth, % of controls (S. aureus T) | Decrease in bacterial viability compared to controls in EDTA-containing buffer, E. coli (Escherichia coli DH10B) | Decrease in bacterial viability compared to controls in EDTA-containing buffer, P. aeruginosa [1] | Decrease of the number of viable bacteria in the inoculum within 2 h (S. pyogenes T) | Reduction of bacterial viability at 3 × SC, S. pyogenes T (S. pyogenes T)
1 | CCCCCCCCCCCCCCCCCCNC(=O)[C@H](C)NC(=O)[C@H]1CCCN1C(=O)[C@H](C)N [DICAM 14, Ala- Pro -Ala-NH-C18H37 · HCl] | (−) ((−) ≤ 0.3 log-units) | 22 ± 10 µM | 41 ± 10 µM | 3.7 ± 0.8 logarithmic units | ≈ 85% | (−) ((−) ≤ 0.3 log-units) |  |  |  |  | 
2 | Ala - Pro -Glu-NH-C18H37 · HCl [DICAM 23] |  |  |  |  |  |  | ≈ 25 % of controls |  |  |  | 
3 | CCCCCCCCCCCCCCCCCCNC(=O)[C@H](CCC(=O)O)NC(=O)[C@H]1CCCN1C(=O)[C@H](C)N [DICAM 4, Ala- Pro -Glu-NH-C18H37 ·HCl] | (+) | 10 ± 4 µM | 51 ± 10 µM | 6.8 ± 0.8 logarithmic units |  | (+) | ≈ 25 % of controls | approximately 90% | approximately 90% |  | 
4 | CCCCCCCCCCCCCCCCCCNC(=O)[C@H](CCC(=O)O)NC(=O)[C@H]1CCCN1C(=O)[C@H](CC(N)=O)NC(=O)OCc1ccccc1 [DICAM 1, Cbz-Asn- Pro -Glu-NH-C18H37] |  |  | 8.3 ± 0.9 µM | 2.5 ± 0.1 logarithmic units |  |  |  |  |  |  | 
5 | CCCCCCCCCCCCCCCCCCNC(=O)[C@H](CCC(=O)O)NC(=O)[C@H]1CCCN1C(=O)[C@H](CCCN)NC(=O)OCc1ccccc1 [DICAM 21, Cbz-Orn- Pro -Glu-NH-C18H37] |  | ∼10 µM | 38 ± 40 µM | 4 ± 2 logarithmic units |  |  |  |  |  |  | 
6 | CCCCCCCCCCCCCCCCCCNC(=O)[C@H](CCC(=O)O)NC(=O)[C@H]1CCCN1C(=O)[C@@H](N)CCC(=O)O [DICAM 20, Glu- Pro -Glu-NH-C18H37 · HCl] |  | 8 ± 2 µM | 17 ± 4 µM | ∼3.0 logarithmic units |  |  |  |  |  |  | 
7 | CCCCCCCCCCCCCCCCCCNC(=O)[C@H](CCC(=O)O)NC(=O)[C@H]1CCCN1C(=O)[C@H](C)NC(=O)OCc1ccccc1 [DICAM 3, Cbz-Ala- Pro -Glu-NH-C18H37] | (−) ((−) ≤ 0.3 log-units) | 3–5 µM and 3.0 ± 0.4 µM | 8.1 ± 0.4 µM | 5.4 ± 0.1 logarithmic units |  | (−) ((−) ≤ 0.3 log-units) |  |  |  | 99.9–99.99% | 94.5%–99.9
8 | CCCCCCCCCCCCCCCCNC(=O)[C@H](CCC(=O)O)NC(=O)[C@H]1CCCN1C(=O)[C@H](CC(N)=O)NC(=O)OCc1ccccc1 [DICAM 10, Cbz-Asn- Pro -Glu-NH-C16H33] |  |  | 6.8 ± 0.7 µM | 2.6 ± 0.1 logarithmic units |  |  |  |  |  |  | 
9 | CCCCCCCCCCCCCCCCCCNC(=O)[C@H](CCC(=O)O)NC(=O)[C@H]1CCCN1C(=O)[C@H](CCC(=O)O)NC(=O)OCc1ccccc1 [DICAM 19, Cbz-Glu- Pro -Glu-NH-C18H37] |  | 4−5 µM and 3.8 ± 0.9 µM | 7.1 ± 0.8 µM | 3.0 ± 0.2 logarithmic units |  |  |  |  |  |  | 94.5%–99.9
10 | CCCCCCCCCCCCCCCCCCNC(=O)[C@H](CCC(=O)O)NC(=O)[C@H]1CCCN1C(=O)[C@@H](N)CC(N)=O [DICAM 2, Asn- Pro -Glu-NH-C18H37 ·HCl] | (+) |  | 14 ± 2 µM | 3.9 ± 0.4 logarithmic units |  | (+) |  | approximately 90% | approximately 90% | 99.9–99.99% | 94.5%–99.9
11 | CCCCCCCCCCCCCCCCCCNC(=O)[C@H](CCC(=O)O)NC(=O)[C@H]1CCCN1C(=O)[C@H](C)NC(C)=O [DICAM 24, Ac-Ala- Pro -Glu-NH-C18H37] | (−) ((−) ≤ 0.3 log-units) |  | 7.2 ± 0.4 µM | 5.3 ± 0.1 logarithmic units |  |  |  |  |  | 99.9–99.99% | 94.5%–99.9
